Test results published in PubChem BioAssay AID256 (DTP/NCI, 2004).
Values joined by “and” are separate entries in the source; they are usually repeats but may differ in a detail not shown here. Equal values may be shown once. Inconclusive results and toxic doses are left out. The calls were made as follows: active = survival T/C of 150% or more; inactive = T/C below 125% in these data. Residues, ends and D or L forms follow the SMILES beside them. *: point of attachment. Boc = CC(C)(C)OC(=O)*; NHNH2 = NN*

Tested on: CD2F1 mice, L1210 leukemia ip, survival T/C
Assay: NCI In Vivo Anticancer Drug Screen. Data for tumor model L1210 Leukemia (intraperitoneal) in CD2F1 (CDF1) mice
Details: higher = longer survival
Summary of the method: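 Each value reflects a quotient of treated over vehicle control outcomes in mice with a transplanted tumor.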

[1] = endpoint: mean survival time, dose: 25.0 mg/kg/injection, schedule: Q01DX009 (ip), vehicle: saline
[2] = endpoint: mean survival time, dose: 50.0 mg/kg/injection, schedule: Q01DX009 (ip), vehicle: saline
[3] = endpoint: mean survival time, dose: 100.0 mg/kg/injection, schedule: Q01DX009 (ip), vehicle: saline
[4] = endpoint: mean survival time, dose: 100.0 mg/kg/injection, schedule: Q01DX009 (ip), vehicle: saline with Tween-80
[5] = endpoint: mean survival time, dose: 200.0 mg/kg/injection, schedule: Q01DX009 (ip), vehicle: saline with Tween-80
[6] = endpoint: mean survival time, dose: 400.0 mg/kg/injection, schedule: Q01DX009 (ip), vehicle: saline with Tween-80
[7] = endpoint: mean survival time, dose: 100.0 mg/kg/injection, schedule: Q04DX003 (ip), vehicle: saline with Tween-80
[8] = endpoint: mean survival time, dose: 200.0 mg/kg/injection, schedule: Q04DX003 (ip), vehicle: saline with Tween-80
[9] = endpoint: mean survival time, dose: 400.0 mg/kg/injection, schedule: Q04DX003 (ip), vehicle: saline with Tween-80
[10] = endpoint: mean survival time, dose: 100.0 mg/kg/injection, schedule: Q04DX002 (ip), vehicle: saline with Tween-80
[11] = endpoint: mean survival time, dose: 200.0 mg/kg/injection, schedule: Q04DX002 (ip), vehicle: saline with Tween-80
[12] = endpoint: mean survival time, dose: 400.0 mg/kg/injection, schedule: Q04DX002 (ip), vehicle: saline with Tween-80
[13] = endpoint: mean survival time, dose: 200.0 mg/kg/injection, schedule: Q04DX003 (ip), vehicle: Klucel (hydroxypropylcellulose) (HPC)
[14] = endpoint: mean survival time, dose: 400.0 mg/kg/injection, schedule: Q01DX001 (ip), vehicle: saline

Measured: T/C

CS(C)(=O)=C/C(=C\C(=O)c1ccccc1)c1ccccc1
inactive: [1] 94 % of control | [2] 94 % of control | [3] 94 % of control

C=CCCCCn1c2ccccc2c2c(C)c3cnccc3c(C)c21
inactive: [4] 102 % of control | [5] 102 % of control | [6] 97 % of control

CCCCCCCCC/C(=N\Nc1ccc([N+](=O)[O-])cc1[N+](=O)[O-])c1ccccc1
inactive: [4] 97 % of control | [5] 87 % of control | [6] 94 % of control

C1CC2OC2C1 (stereo not drawn)
inactive: endpoint: mean survival time, dose: 100.0 mg/kg/injection, schedule: Q01DX009 (ip), vehicle: acetone 95 % of control | endpoint: mean survival time, dose: 200.0 mg/kg/injection, schedule: Q01DX009 (ip), vehicle: acetone 97 % of control | endpoint: mean survival time, dose: 400.0 mg/kg/injection, schedule: Q01DX009 (ip), vehicle: acetone 95 % of control

CCOc1ccc(Nc2ncnc3nc[nH]c23)cc1CN(CCCl)CCCl
inactive: endpoint: mean survival time, dose: 2.0 mg/kg/injection, schedule: Q01DX009 (ip), vehicle: saline sonified 116 % of control | endpoint: mean survival time, dose: 4.0 mg/kg/injection, schedule: Q01DX009 (ip), vehicle: saline sonified 117 % of control | endpoint: mean survival time, dose: 8.0 mg/kg/injection, schedule: Q01DX009 (ip), vehicle: saline sonified 116 % of control

CCOC(=O)c1cc(-c2ccc3ccccc3n2)c(O)c2cc3ccccc3nc12
inactive: [7] 93 % of control | [8] 87 % of control | [9] 90 % of control

S=C(N/N=C/c1ccccn1)Nc1ccccn1
inactive: [10] 103 % of control | [11] 114 % of control | [12] 91 % of control

CC/C(=N/NC(=O)c1ccccc1)c1ccccc1
inactive: endpoint: mean survival time, dose: 100.0 mg/kg/injection, schedule: Q01DX009 (ip), vehicle: Klucel (hydroxypropylcellulose) (HPC) 97 % of control | endpoint: mean survival time, dose: 100.0 mg/kg/injection, schedule: Q04DX003 (ip), vehicle: Klucel (hydroxypropylcellulose) (HPC) 96 % of control | [13] 94 % of control | endpoint: mean survival time, dose: 400.0 mg/kg/injection, schedule: Q04DX003 (ip), vehicle: Klucel (hydroxypropylcellulose) (HPC) 86 % of control

COc1cccc(NC(=S)NC(Cc2ccccc2)c2ccccc2)c1 (stereo not drawn)
inactive: endpoint: mean survival time, dose: 100.0 mg/kg/injection, schedule: Q01DX001 (ip), vehicle: Klucel (hydroxypropylcellulose) (HPC) 101 % of control | endpoint: mean survival time, dose: 200.0 mg/kg/injection, schedule: Q01DX001 (ip), vehicle: Klucel (hydroxypropylcellulose) (HPC) 91 % of control | endpoint: mean survival time, dose: 400.0 mg/kg/injection, schedule: Q01DX001 (ip), vehicle: Klucel (hydroxypropylcellulose) (HPC) 96 % of control

O=C1OC(O)C(Cl)=C1Cl (stereo not drawn)
inactive: endpoint: mean survival time, dose: 100.0 mg/kg/injection, schedule: Q04DX002 (ip), vehicle: Klucel (hydroxypropylcellulose) (HPC) 103 % of control | endpoint: mean survival time, dose: 200.0 mg/kg/injection, schedule: Q04DX002 (ip), vehicle: Klucel (hydroxypropylcellulose) (HPC) 91 % of control | endpoint: mean survival time, dose: 400.0 mg/kg/injection, schedule: Q04DX002 (ip), vehicle: Klucel (hydroxypropylcellulose) (HPC) 97 % of control

O=C(O)O.[Co]
inactive: [14] 105 % of control

COC(=O)N1c2ccc(OC)cc2C=CC1C#N (stereo not drawn)
inactive: [4] 94 % of control | [7] 96 % of control | [5] 95 % of control | [8] 102 % of control | [6] 103 % of control | [9] 94 % of control

CCN(CC)c1ccc2cc3ccc(=[N+](CC)CC)cc-3oc2c1
inactive: endpoint: mean survival time, dose: 9.0 mg/kg/injection, schedule: Q01DX010 (ip), vehicle: saline 106 % of control

COC(=O)C1(C)CCCC2(C)C1CCC13OCC(CC21)C(=C(C)C)C3OC(C)=O (stereo not drawn)
inactive: [7] 100 % of control | [8] 95 % of control | [9] 100 % of control

NC1CC(N)C(O)C(O)C1O (stereo not drawn)
inactive: endpoint: mean survival time, dose: 100.0 mg/kg/injection, schedule: Q01DX001 (ip), vehicle: saline 95 % of control | [10] 103 % of control | endpoint: mean survival time, dose: 200.0 mg/kg/injection, schedule: Q01DX001 (ip), vehicle: saline 100 % of control | [11] 103 % of control | [14] 94 % of control | [12] 95 % of control

C/C(=C/c1ccccc1)C(O)C(=O)O (stereo not drawn)
inactive: endpoint: mean survival time, dose: 50.0 mg/kg/injection, schedule: Q04DX003 (ip), vehicle: Klucel (hydroxypropylcellulose) (HPC) 100 % of control | [13] 100 % of control

COC(=O)c1cccc(O)c1O
inactive: endpoint: mean survival time, dose: 100.0 mg/kg/injection, schedule: Q04DX002 (ip), vehicle: other 98 % of control | endpoint: mean survival time, dose: 200.0 mg/kg/injection, schedule: Q04DX002 (ip), vehicle: other 92 % of control | endpoint: mean survival time, dose: 400.0 mg/kg/injection, schedule: Q04DX002 (ip), vehicle: other 95 % of control

CCCOC(=O)OCCC
inactive: endpoint: mean survival time, dose: 25.0 mg/kg/injection, schedule: Q04DX003 (ip), vehicle: saline with Tween-80 102 % of control | endpoint: mean survival time, dose: 50.0 mg/kg/injection, schedule: Q04DX003 (ip), vehicle: saline with Tween-80 96 % of control | [4] 97 % of control | [7] 94 % of control | [5] 95 % of control | [8] 94 % of control | [6] 104 % of control | [9] 96 % of control

[Cl][Pt+2][Cl].[NH-]CCO.[NH-]CCO
inactive: endpoint: mean survival time, dose: 12.5 mg/kg/injection, schedule: Q04DX003 (ip), vehicle: saline 102 % of control | endpoint: mean survival time, dose: 50.0 mg/kg/injection, schedule: Q04DX003 (ip), vehicle: saline 118 % of control

O=C(C=P(CC[PH+](Cc1ccccc1)Cc1ccccc1)(Cc1ccccc1)Cc1ccccc1)c1ccccc1.[Cl][Pd][Cl]
inactive: endpoint: mean survival time, dose: 3.13 mg/kg/injection, schedule: Q04DX003 (ip), vehicle: distilled water + Tween-80 98 % of control | endpoint: mean survival time, dose: 6.25 mg/kg/injection, schedule: Q04DX003 (ip), vehicle: distilled water + Tween-80 100 % of control | endpoint: mean survival time, dose: 12.5 mg/kg/injection, schedule: Q04DX003 (ip), vehicle: distilled water + Tween-80 104 % of control | endpoint: mean survival time, dose: 25.0 mg/kg/injection, schedule: Q04DX003 (ip), vehicle: distilled water + Tween-80 102 % of control | endpoint: mean survival time, dose: 50.0 mg/kg/injection, schedule: Q04DX003 (ip), vehicle: distilled water + Tween-80 96 % of control | endpoint: mean survival time, dose: 100.0 mg/kg/injection, schedule: Q04DX003 (ip), vehicle: distilled water + Tween-80 96 % of control | endpoint: mean survival time, dose: 200.0 mg/kg/injection, schedule: Q04DX003 (ip), vehicle: distilled water + Tween-80 96 % of control

N#CCc1c(C(N)=O)ncn1C1OC(COP(=O)(O)O)C(O)C1O (stereo not drawn)
inactive: endpoint: median survival time, dose: 12.5 mg/kg/injection, schedule: Q01DX005 (ip), vehicle: water 109 % of control | endpoint: median survival time, dose: 25.0 mg/kg/injection, schedule: Q01DX005 (ip), vehicle: water 104 % of control | endpoint: median survival time, dose: 50.0 mg/kg/injection, schedule: Q01DX005 (ip), vehicle: water 103 % of control | endpoint: median survival time, dose: 100.0 mg/kg/injection, schedule: Q01DX005 (ip), vehicle: water 97 % of control | endpoint: median survival time, dose: 200.0 mg/kg/injection, schedule: Q01DX005 (ip), vehicle: water 97 % of control

CN(C)CCNc1ccc(O)c2c1C(=O)c1ccccc1C2=O
inactive: endpoint: mean survival time, dose: 10.0 mg/kg/injection, schedule: Q01DX009 (ip), vehicle: saline with Tween-80 94 % of control | endpoint: mean survival time, dose: 20.0 mg/kg/injection, schedule: Q01DX009 (ip), vehicle: saline with Tween-80 90 % of control | endpoint: mean survival time, dose: 40.0 mg/kg/injection, schedule: Q01DX009 (ip), vehicle: saline with Tween-80 107 % of control | endpoint: mean survival time, dose: 80.0 mg/kg/injection, schedule: Q01DX009 (ip), vehicle: saline with Tween-80 122 % of control

CN1CCC(O)(C#N)CC1
inactive: endpoint: mean survival time, dose: 3.75 mg/kg/injection, schedule: Q04DX003 (ip), vehicle: saline 102 % of control | endpoint: mean survival time, dose: 7.5 mg/kg/injection, schedule: Q04DX003 (ip), vehicle: saline 102 % of control | endpoint: mean survival time, dose: 15.0 mg/kg/injection, schedule: Q04DX003 (ip), vehicle: saline 100 % of control

CCCCNC(C)(C)C(SSSC(c1cccs1)C(C)(C)NCCCC)c1cccs1 (stereo not drawn)
inactive: endpoint: mean survival time, dose: 100.0 mg/kg/injection, schedule: Q01DX009 (ip), vehicle: saline sonified 100 % of control | endpoint: mean survival time, dose: 200.0 mg/kg/injection, schedule: Q01DX009 (ip), vehicle: saline sonified 103 % of control

CC(C)CC(NC(=O)C(Cc1c[nH]c2ccccc12)NC(=O)OC(C)(C)C)C(=O)NN (stereo not drawn) (Boc-Trp-Leu-NHNH2; configuration not given here)
inactive: [1] 105 % of control | [2] 106 % of control and 109 % of control | [3] 117 % of control and 124 % of control | endpoint: mean survival time, dose: 200.0 mg/kg/injection, schedule: Q01DX009 (ip), vehicle: saline 117 % of control
